Data: patent US10392368B2, “Pyrazolo and triazolo bicyclic compounds as JAK kinase inhibitors” (THERAVANCE BIOPHARMA R&D IP, LLC, priority 2017, dated 2019)
Read-outs that look alike come from different tables or passages of the source.

Assays:
Tyk2 = biological target: T1, Tyk2 (Homo sapiens, UniProt P29597); assay: Biochemical Tyk2 kinase assay (LanthaScreen); details: for Ki: read-out: Tyk 2 (pKi) (converted)
T1 construct: GST; purchased Life Technologies
Experimental: (§1) A panel of four LanthaScreen JAK biochemical assays (JAK1, 2, 3 and Tyk2) were carried in a common kinase reaction buffer (50 mM HEPES, pH 7.5, 0.01% Brij-35, 10 mM MgCl2, and 1 mM EGTA). Recombinant GST-tagged JAK enzymes and a GFP-tagged STAT1 peptide substrate were obtained from Life Technologies.
(§2) Serially or discretely diluted compounds were pre-incubated with each of the four JAK enzymes and the substrate in white 384-well microplates (Corning) at ambient temperature for 1 h. ATP was subsequently added to initiate the kinase reactions in 10 μL total volume, with 1% DMSO. […] Kinase reactions were allowed to proceed for 1 hour at ambient temperature before a 10 μL preparation of EDTA (10 mM final concentration) and Tb-anti-pSTAT1 (pTyr701) antibody (Life Technologies, 2 nM final concentration) in TR-FRET dilution buffer (Life Technologies) was added. The plates were allowed to incubate at ambient temperature for 1 h before being read on the EnVision reader (Perkin Elmer). Emission ratio signals (520 nm/495 nm) were recorded and utilized to calculate the percent inhibition values based on DMSO and background controls.
(§3) For dose-response analysis, percent inhibition data were plotted vs. compound concentrations, and IC50 values were determined from a 4-parameter robust fit model with the Prism software (GraphPad Software). Results were expressed as pIC50 (negative logarithm of IC50) and subsequently converted to pKi (negative logarithm of dissociation constant, Ki) using the Cheng-Prusoff equation.

JAK2 = biological target: T2, JAK2 (Homo sapiens, UniProt O60674); assay: Biochemical JAK2 kinase assay (LanthaScreen); details: for Ki: read-out: JAK 2 (pKi) (converted)
T2 construct: GST; purchased Life Technologies
T2 sequence (O60674 whole entry): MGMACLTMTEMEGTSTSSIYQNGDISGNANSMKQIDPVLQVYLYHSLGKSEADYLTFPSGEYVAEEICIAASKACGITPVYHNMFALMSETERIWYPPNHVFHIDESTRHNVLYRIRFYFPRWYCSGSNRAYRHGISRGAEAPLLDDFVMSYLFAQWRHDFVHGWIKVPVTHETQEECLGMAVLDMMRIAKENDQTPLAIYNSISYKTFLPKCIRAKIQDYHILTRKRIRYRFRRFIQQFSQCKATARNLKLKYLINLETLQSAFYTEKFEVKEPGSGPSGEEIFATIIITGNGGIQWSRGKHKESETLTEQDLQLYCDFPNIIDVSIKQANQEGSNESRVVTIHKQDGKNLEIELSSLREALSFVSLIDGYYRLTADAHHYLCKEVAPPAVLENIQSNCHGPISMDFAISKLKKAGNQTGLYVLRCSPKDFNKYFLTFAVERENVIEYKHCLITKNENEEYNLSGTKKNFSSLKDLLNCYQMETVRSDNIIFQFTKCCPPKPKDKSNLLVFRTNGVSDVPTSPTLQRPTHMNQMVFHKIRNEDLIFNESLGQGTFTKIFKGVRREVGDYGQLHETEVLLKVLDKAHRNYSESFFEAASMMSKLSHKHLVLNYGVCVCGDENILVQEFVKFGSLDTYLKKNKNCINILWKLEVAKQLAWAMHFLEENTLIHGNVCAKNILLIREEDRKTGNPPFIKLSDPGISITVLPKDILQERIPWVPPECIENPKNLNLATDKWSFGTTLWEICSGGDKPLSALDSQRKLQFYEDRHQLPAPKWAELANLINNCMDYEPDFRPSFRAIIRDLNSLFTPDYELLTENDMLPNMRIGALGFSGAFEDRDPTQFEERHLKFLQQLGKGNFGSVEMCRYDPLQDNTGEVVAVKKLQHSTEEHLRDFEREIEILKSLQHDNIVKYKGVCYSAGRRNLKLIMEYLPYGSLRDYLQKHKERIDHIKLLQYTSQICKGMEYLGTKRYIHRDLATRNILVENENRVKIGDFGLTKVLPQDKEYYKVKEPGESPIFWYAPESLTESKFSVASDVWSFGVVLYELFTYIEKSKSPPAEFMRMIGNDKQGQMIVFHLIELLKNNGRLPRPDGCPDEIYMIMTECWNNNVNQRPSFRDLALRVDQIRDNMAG
Experimental: as §1
as §2, with “Elmer).” for “Elmer). Emission ratio signals (520 nm/495 nm) were recorded and utilized to calculate the percent inhibition values based on DMSO and background controls.”
as §3

[1] = system: IL-2 stimulated pSTAT5 in Tall-1 T cells; assay: Cellular JAK3 potency assay: inhibition of IL-2 stimulated pSTAT5 in Tall-1 T cells; type: cell-based, human; details: for IC50: Homo sapiens, read-out: Tall-1 (pIC50) (converted)
Outline: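 In human Tall-1 T cells, IL-2 (300 ng/ml final, 30 min) drives STAT5 phosphorylation after a 1 h compound pretreatment. Lysates are assayed for pSTAT5 by AlphaLisa, and IC50 derived from signal versus concentration is expressed as pIC50.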

JAK3 = biological target: T3, JAK3 (Homo sapiens, UniProt P52333); assay: Biochemical JAK3 kinase assay (LanthaScreen); design: GST; purchased Life Technologies; details: for Ki: read-out: JAK 3 (pKi) (converted)
T3 sequence (P52333 1-1124): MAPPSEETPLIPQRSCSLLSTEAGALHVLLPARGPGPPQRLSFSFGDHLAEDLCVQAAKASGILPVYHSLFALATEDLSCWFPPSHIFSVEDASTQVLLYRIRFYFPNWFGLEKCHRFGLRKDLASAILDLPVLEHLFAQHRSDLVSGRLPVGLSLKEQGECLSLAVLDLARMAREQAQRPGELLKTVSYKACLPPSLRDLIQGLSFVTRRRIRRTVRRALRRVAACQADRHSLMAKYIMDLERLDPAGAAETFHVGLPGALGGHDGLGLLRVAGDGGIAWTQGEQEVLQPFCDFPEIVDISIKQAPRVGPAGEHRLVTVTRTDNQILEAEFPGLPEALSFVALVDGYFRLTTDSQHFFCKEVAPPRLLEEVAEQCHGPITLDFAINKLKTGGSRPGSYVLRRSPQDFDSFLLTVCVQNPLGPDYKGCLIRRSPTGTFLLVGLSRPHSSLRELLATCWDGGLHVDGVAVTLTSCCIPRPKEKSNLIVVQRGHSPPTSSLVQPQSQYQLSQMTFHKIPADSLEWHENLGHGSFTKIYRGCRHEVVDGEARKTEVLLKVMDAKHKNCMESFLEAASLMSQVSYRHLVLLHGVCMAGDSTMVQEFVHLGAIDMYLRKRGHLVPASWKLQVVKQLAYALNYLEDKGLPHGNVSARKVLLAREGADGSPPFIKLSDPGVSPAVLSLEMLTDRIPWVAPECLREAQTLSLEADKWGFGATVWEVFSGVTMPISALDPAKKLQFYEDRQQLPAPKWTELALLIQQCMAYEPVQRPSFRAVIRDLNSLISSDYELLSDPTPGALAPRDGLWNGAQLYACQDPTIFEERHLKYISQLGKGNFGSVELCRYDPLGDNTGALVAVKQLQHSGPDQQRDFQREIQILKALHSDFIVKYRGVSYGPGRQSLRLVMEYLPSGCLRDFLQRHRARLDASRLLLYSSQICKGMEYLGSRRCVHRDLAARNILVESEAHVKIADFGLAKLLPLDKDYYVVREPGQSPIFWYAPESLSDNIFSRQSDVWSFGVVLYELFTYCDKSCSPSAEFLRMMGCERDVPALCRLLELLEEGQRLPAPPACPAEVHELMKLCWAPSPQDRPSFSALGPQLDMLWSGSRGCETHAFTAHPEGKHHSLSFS
Outline: (§4)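 Recombinant GST-tagged JAK enzymes with GFP-STAT1 peptide substrate in 50 mM HEPES pH 7.5, 10 mM MgCl2, 1 mM EGTA, 0.01% Brij-35; compounds pre-incubated 1 h, then ATP added, 1 h reaction at ambient temperature. TR-FRET (Tb-anti-pSTAT1 pTyr701, 520/495 nm) after EDTA stop; IC50 by 4-parameter fit, converted to pKi via Cheng-Prusoff.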

JAK1 = biological target: T4, JAK1 (Homo sapiens, UniProt P23458); assay: Biochemical JAK1 kinase assay (LanthaScreen); details: for Ki: read-out: JAK 1 (pKi) (converted)
T4 construct: GST; purchased Life Technologies
T4 sequence (P23458 whole entry): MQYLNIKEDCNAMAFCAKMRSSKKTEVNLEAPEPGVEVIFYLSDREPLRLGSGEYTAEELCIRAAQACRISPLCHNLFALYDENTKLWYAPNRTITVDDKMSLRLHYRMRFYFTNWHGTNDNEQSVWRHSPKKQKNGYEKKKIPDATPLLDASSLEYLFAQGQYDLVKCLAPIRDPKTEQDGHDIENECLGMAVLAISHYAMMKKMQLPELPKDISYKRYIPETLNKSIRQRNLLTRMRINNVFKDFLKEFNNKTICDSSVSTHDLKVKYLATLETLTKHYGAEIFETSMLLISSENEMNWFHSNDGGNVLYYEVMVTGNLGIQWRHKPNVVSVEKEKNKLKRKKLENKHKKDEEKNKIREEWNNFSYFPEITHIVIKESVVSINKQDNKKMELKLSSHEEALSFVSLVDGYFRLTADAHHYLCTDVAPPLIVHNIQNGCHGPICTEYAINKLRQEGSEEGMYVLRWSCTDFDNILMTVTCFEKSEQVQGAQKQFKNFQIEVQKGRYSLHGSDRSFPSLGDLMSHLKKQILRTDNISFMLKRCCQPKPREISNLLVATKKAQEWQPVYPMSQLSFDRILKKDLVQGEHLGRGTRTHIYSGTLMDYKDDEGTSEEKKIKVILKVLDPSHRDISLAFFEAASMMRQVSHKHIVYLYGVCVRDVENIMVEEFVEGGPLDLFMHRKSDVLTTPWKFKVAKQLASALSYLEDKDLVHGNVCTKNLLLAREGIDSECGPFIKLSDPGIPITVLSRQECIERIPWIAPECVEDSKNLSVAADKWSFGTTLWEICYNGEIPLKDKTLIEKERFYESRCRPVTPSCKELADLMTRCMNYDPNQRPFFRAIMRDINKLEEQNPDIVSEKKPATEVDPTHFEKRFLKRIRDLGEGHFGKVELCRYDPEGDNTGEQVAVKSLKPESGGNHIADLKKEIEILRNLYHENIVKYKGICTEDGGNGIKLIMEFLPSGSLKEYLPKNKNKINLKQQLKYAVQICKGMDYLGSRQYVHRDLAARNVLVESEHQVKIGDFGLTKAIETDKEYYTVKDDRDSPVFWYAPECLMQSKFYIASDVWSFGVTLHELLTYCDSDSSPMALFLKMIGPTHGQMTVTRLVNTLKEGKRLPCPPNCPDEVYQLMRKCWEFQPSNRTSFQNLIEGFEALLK
Outline: as §4

[2] = TALL-1, IL-2 stimulated pSTAT5 in Tall-1 T cells
[3] = selectivity: difference of pKi JAK3 and pKi JAK1
[4] = IL-2 stimulated pSTAT5 in Tall-1 T cells
[5] = IL-2 stimulated pSTAT5, Tall-1 T cells
[6] = selectivity JAK3 over JAK1, difference of pKi

T1 sequence (P29597 whole entry): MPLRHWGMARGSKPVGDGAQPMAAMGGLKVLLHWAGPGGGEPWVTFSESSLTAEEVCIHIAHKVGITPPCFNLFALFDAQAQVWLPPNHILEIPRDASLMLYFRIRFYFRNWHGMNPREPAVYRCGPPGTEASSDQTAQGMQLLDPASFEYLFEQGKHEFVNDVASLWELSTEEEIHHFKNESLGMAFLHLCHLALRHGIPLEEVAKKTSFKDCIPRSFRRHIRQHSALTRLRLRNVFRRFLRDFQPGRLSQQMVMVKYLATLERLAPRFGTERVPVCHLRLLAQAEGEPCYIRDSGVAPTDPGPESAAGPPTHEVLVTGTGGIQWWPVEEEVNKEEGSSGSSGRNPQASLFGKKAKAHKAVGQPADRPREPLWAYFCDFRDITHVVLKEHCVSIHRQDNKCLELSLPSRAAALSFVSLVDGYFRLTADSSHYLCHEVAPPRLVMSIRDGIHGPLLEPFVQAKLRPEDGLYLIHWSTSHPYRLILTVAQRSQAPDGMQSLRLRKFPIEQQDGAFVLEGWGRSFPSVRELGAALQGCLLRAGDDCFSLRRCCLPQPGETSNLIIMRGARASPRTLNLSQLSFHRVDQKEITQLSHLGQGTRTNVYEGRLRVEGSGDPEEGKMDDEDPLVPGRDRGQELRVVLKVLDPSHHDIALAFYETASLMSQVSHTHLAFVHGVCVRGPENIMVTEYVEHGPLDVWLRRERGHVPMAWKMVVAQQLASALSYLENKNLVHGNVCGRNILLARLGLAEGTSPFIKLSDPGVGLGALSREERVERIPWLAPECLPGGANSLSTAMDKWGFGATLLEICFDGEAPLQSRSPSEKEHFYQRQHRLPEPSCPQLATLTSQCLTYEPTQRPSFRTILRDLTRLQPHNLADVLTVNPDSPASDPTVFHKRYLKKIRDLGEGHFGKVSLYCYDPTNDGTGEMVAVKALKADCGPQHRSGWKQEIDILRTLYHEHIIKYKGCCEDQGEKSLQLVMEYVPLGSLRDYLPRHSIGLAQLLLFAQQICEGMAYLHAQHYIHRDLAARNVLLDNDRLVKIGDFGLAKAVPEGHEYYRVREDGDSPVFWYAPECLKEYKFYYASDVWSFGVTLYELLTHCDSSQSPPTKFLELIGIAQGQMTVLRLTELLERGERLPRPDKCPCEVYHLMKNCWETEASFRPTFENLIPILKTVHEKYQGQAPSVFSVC

For `COC1CCN(C/C=C/C(=O)N2CC(COc3cc(-c4ccc(O)cc4)cc4[nH]ncc34)C2)CC1` [Compound 3-127], the Ki (Tyk2) was over 100 nM, the Ki (JAK2) was 10 to 100 nM and the IC50 [1, 2] was 31.6 to 200 nM. For the same compound, the Ki (JAK3) was under 0.1 nM, the “JAK3 (pKi)-JAK1 (pKi)” value (JAK3; [3]) was “A (a value of 3 or above)” and the Ki (JAK1) was over 100 nM.

For `CN(C/C=C/C(=O)N1CC(COc2cc(-c3ccc(O)cc3)cc3[nH]ncc23)C1)C1CCC1` [Compound 3-117], the Ki (Tyk2) was over 100 nM, the Ki (JAK2) was 10 to 100 nM and the IC50 [1, 2] was 31.6 to 200 nM. For the same compound, the Ki (JAK3) was 0.1 to 1 nM, the “JAK3 (pKi)-JAK1 (pKi)” value (JAK3; [3]) was “B (a value of 2.3 to 3)” and the Ki (JAK1) was over 100 nM.

In the case of `C=CC(=O)N1CC(COc2cc(-c3ccc(O)cc3)cc3[nH]ncc23)(OC)C1` [Compound 3-33], the “Tyk 2 (pKi)” value (Tyk2) is reported as “E (a pKi value of 7 or below (Ki of 100 nM or above))”, the “JAK 2 (pKi)” value (JAK2) is reported as “E (a pKi value of 7 or below (Ki of 100 nM or above))” and the “Tall-1 (pIC50)” value [1, 4] is reported as “B (a pIC50 value between 6.7 (included) and 7.5 (IC50 between 200 nM and 32 nM))”. For the same compound, the “JAK 3 (pKi)” value (JAK3) was “B (a pKi value between 9 and 10 (Ki between 1 nM and 0.1 nM))”, the “JAK3 (pKi)-JAK1 (pKi)” value (JAK3; [3]) was “B (a value of 2.3 to 3)” and the “JAK 1 (pKi)” value (JAK1) was “E (a pKi value of 7 or below (Ki of 100 nM or above))”.

`C=CC(=O)N1CCC(Oc2cc(-c3ccc(O)cc3)nc3[nH]ncc23)CC1C` (stereo not drawn) [Compound 13-11] was tested, and the “Tyk 2 (pKi)” value (Tyk2) was “E (a pKi value of 7 or below (Ki of 100 nM or above))”, the “JAK 2 (pKi)” value (JAK2) was “E (a pKi value of 7 or below (Ki of 100 nM or above))” and the “Tall-1 (pIC50)” value [1, 5] was “A (a pIC50 value≥7.5 (IC50≤32 nM))”. For the same compound, the “JAK 3 (pKi)” value (JAK3) was “A (a pKi value≥10 (Ki≤0.1 nM))”, the “JAK3 (pKi)-JAK1 (pKi)” value (JAK3; [6]) was “A (a value of 3 or above)” and the “JAK 1 (pKi)” value (JAK1) was “E (a pKi value of 7 or below (Ki of 100 nM or above))”.

`C=CC(=O)N1CC(C)(COc2cc(-c3ccc(O)cc3)nc3[nH]ncc23)C1` [Compound 3-58] was tested, and the “Tyk 2 (pKi)” value (Tyk2) was “E (a pKi value of 7 or below (Ki of 100 nM or above))”, the “JAK 2 (pKi)” value (JAK2) was “E (a pKi value of 7 or below (Ki of 100 nM or above))” and the “Tall-1 (pIC50)” value [1, 4] was “B (a pIC50 value between 6.7 (included) and 7.5 (IC50 between 200 nM and 32 nM))”. For the same compound, the “JAK 3 (pKi)” value (JAK3) was “A (a pKi value≥10 (Ki≤0.1 nM))”, the “JAK3 (pKi)-JAK1 (pKi)” value (JAK3; [3]) was “A (a value of 3 or above)” and the “JAK 1 (pKi)” value (JAK1) was “E (a pKi value of 7 or below (Ki of 100 nM or above))”.

With `C=CC(=O)N1CC[C@H](Oc2cc(-c3cc(F)c(O)cc3F)cc3[nH]ncc23)C1` [Compound 1-19] the “Tyk 2 (pKi)” value (Tyk2) was “E (a pKi value of 7 or below (Ki of 100 nM or above))”, the “JAK 2 (pKi)” value (JAK2) was “D (a pKi value between 7 and 8 (Ki between 100 nM and 10 nM))” and the “Tall-1 (pIC50)” value [1, 4] was “B (a pIC50 value between 6.7 (included) and 7.5 (IC50 between 200 nM and 32 nM))”. For the same compound, the “JAK 3 (pKi)” value (JAK3) was “B (a pKi value between 9 and 10 (Ki between 1 nM and 0.1 nM))”, the “JAK3 (pKi)-JAK1 (pKi)” value (JAK3; [3]) was “A (a value of 3 or above)” and the “JAK 1 (pKi)” value (JAK1) was “E (a pKi value of 7 or below (Ki of 100 nM or above))”.

For `C=CC(=O)N1CCC(COc2cc(-c3ccc(O)cc3)nc3[nH]ncc23)CC1` [Compound 14-2], the “Tyk 2 (pKi)” value (Tyk2) was “E (a pKi value of 7 or below (Ki of 100 nM or above))”, the “JAK 2 (pKi)” value (JAK2) was “E (a pKi value of 7 or below (Ki of 100 nM or above))” and the “Tall-1 (pIC50)” value [1, 5] was “B (a pIC50 value between 6.7 (included) and 7.5 (IC50 between 200 nM and 32 nM))”. For the same compound, the “JAK 3 (pKi)” value (JAK3) was “A (a pKi value≥10 (Ki≤0.1 nM))”, the “JAK3 (pKi)-JAK1 (pKi)” value (JAK3; [6]) was “A (a value of 3 or above)” and the “JAK 1 (pKi)” value (JAK1) was “E (a pKi value of 7 or below (Ki of 100 nM or above))”.

`C=CC(=O)N1CC(F)(COc2nc(-c3ccc(O)c(Cl)c3)nc3[nH]ncc23)C1` [Compound 3-92] gave a Ki (Tyk2) of over 100 nM, a Ki (JAK2) of over 100 nM and an IC50 [1, 2] of under 31.6 nM. For the same compound, the Ki (JAK3) was under 0.1 nM, the “JAK3 (pKi)-JAK1 (pKi)” value (JAK3; [3]) was “A (a value of 3 or above)” and the Ki (JAK1) was over 100 nM.

With `C=CS(=O)(=O)N1CC[C@H](Oc2cc(-c3ccc(O)cc3)cc3[nH]ncc23)C1` [Compound 18, (S)-4-(4-((1-(vinylsulfonyl)pyrrolidin-3-yl)oxy)-1H-indazol-6-yl)phenol] the Ki (Tyk2) was over 100 nM, the Ki (JAK2) was 10 to 100 nM and the IC50 [1, 2] was under 31.6 nM. The Ki (JAK3) was 0.1 to 1 nM, the “JAK3 (pKi)-JAK1 (pKi)” value (JAK3; [3]) was “A (a value of 3 or above)” and the Ki (JAK1) was over 100 nM.

For `C=CC(=O)N1CCSC(C(=O)Nc2cc(-c3ccc(O)cc3)cc3[nH]ncc23)C1` (stereo not drawn) [Compound 12-42], the Ki (Tyk2) was over 100 nM, the Ki (JAK2) was 10 to 100 nM and the IC50 ([1]; TALL-1, IL-2 stimulated pSTAT5, Tall-1 T cells) was 31.6 to 200 nM. The Ki (JAK3) was 0.1 to 1 nM, the “JAK3 (pKi)-JAK1 (pKi)” value (JAK3; [6]) was “B (a value of 2.3 to 3)” and the Ki (JAK1) was over 100 nM.

`CN(C)C/C=C/C(=O)N1CC(F)(COc2nc(-c3ccc(O)c(F)c3)cc3[nH]ncc23)C1` [Compound 3-48] was tested, and the “Tyk 2 (pKi)” value (Tyk2) was “E (a pKi value of 7 or below (Ki of 100 nM or above))”, the “JAK 2 (pKi)” value (JAK2) was “D (a pKi value between 7 and 8 (Ki between 100 nM and 10 nM))” and the “Tall-1 (pIC50)” value [1, 4] was “A (a pIC50 value≥7.5 (IC50≤32 nM))”. The “JAK 3 (pKi)” value (JAK3) was “A (a pKi value≥10 (Ki≤0.1 nM))”, the “JAK3 (pKi)-JAK1 (pKi)” value (JAK3; [3]) was “A (a value of 3 or above)” and the “JAK 1 (pKi)” value (JAK1) was “D (a pKi value between 7 and 8 (Ki between 100 nM and 10 nM))”.
